Measured values as given in US20250197601A1, “COMPOSITION” (LMS CO., LTD., priority 2023, published 2025).

Experiment: Solubility of each synthesized compound in multiple solvents at room temperature
Type: physicochemical
Details: room temperature (about 25° C.); for Solubility in MEK: methyl ethyl ketone; for Solubility in MIBK: methyl isobutyl ketone
Protocol: The solubility of each compound synthesized above was evaluated. Solubility was evaluated based on the following criteria by evaluating the solubility of each compound in multiple solvents (cyclohexanone, toluene, methyl isobutyl ketone (MIBK), or methyl ethyl ketone (MEK)) at room temperature (about 25° C.).
• A: A case where the solubility is 1% by mass or more. • B: A case where the solubility is 0.5 mass % or more and less than 1 mass %. • C: A case where the solubility is 0.2 mass % or more and less than 0.5 mass %. • D: A case where solubility is less than 0.2 mass %.

Row | Structure (SMILES) | Solubility in Cyclohexanone | Solubility in MEK | Solubility in MIBK | Solubility in Toluene
1 | CCOC(=O)Nc1cc2c(cc1C1=C([O-])/C(=c3\cc4c(cc3NC(=O)OCC)=[N+](CCOC)C(C)C4(C)C)C1=O)C(C)(C)C(C)N2CCOC (centres unmarked) [Synthesis Example 1] | A (A case where the solubility is 1% by mass or more.) | A (A case where the solubility is 1% by mass or more.) | A (A case where the solubility is 1% by mass or more.) | B (A case where the solubility is 0.5 mass % or more and less than 1 mass %.)
2 | CCCCC(CC)COC(=O)Nc1cc2c(cc1C1=C([O-])/C(=c3\cc4c(cc3NC(=O)OCC(CC)CCCC)=[N+](CCOC)C(C)C4(C)C)C1=O)C(C)(C)C(C)N2CCOC (centres unmarked) [Synthesis Example 2] | A (A case where the solubility is 1% by mass or more.) | A (A case where the solubility is 1% by mass or more.) | A (A case where the solubility is 1% by mass or more.) | B (A case where the solubility is 0.5 mass % or more and less than 1 mass %.)
3 | CCCCC(CC)COC(=O)Nc1cc2c(cc1C1=C([O-])/C(=c3\cc4c(cc3NC(=O)OCC(CC)CCCC)=[N+](C)C(C)C4(C)C)C1=O)C(C)(C)C(C)N2C (centres unmarked) [Synthesis Example 3] | A (A case where the solubility is 1% by mass or more.) | A (A case where the solubility is 1% by mass or more.) | A (A case where the solubility is 1% by mass or more.) | A (A case where the solubility is 1% by mass or more.)
4 | CCCCCCN1c2cc(NC(C)=O)c(C3=C([O-])/C(=c4\cc5c(cc4NC(C)=O)=[N+](CCCCCC)C(C)C5(C)C)C3=O)cc2C(C)(C)C1C (centres unmarked) [Synthesis Example 4] | A (A case where the solubility is 1% by mass or more.) | A (A case where the solubility is 1% by mass or more.) | A (A case where the solubility is 1% by mass or more.) | B (A case where the solubility is 0.5 mass % or more and less than 1 mass %.)
5 | CCCCCCN1c2cc(NC(=O)C(CC)CCCC)c(C3=C([O-])/C(=c4\cc5c(cc4NC(=O)C(CC)CCCC)=[N+](CCCCCC)C(C)C5(C)C)C3=O)cc2C(C)(C)C1C (centres unmarked) [Synthesis Example 5] | A (A case where the solubility is 1% by mass or more.) | A (A case where the solubility is 1% by mass or more.) | A (A case where the solubility is 1% by mass or more.) | A (A case where the solubility is 1% by mass or more.)
6 | CCCCCCCCS(=O)(=O)Nc1cc2c(cc1C1=C([O-])/C(=c3\cc4c(cc3NS(=O)(=O)CCCCCCCC)=[N+](CCCCCC)C(C)C4(C)C)C1=O)C(C)(C)C(C)N2CCCCCC (centres unmarked) [Synthesis Example 6] | A (A case where the solubility is 1% by mass or more.) | A (A case where the solubility is 1% by mass or more.) | A (A case where the solubility is 1% by mass or more.) | A (A case where the solubility is 1% by mass or more.)
7 | CC(=O)Nc1cc2c(cc1C1=C([O-])/C(=c3\cc4c(cc3NC(C)=O)=[N+](C)C(C)C4(C)C)C1=O)C(C)(C)C(C)N2C (centres unmarked) [Synthesis Example 7] | A (A case where the solubility is 1% by mass or more.) | B (A case where the solubility is 0.5 mass % or more and less than 1 mass %.) | A (A case where the solubility is 1% by mass or more.) | B (A case where the solubility is 0.5 mass % or more and less than 1 mass %.)
8 | C/C(C1=Nc2ccc3ccccc3c2C1(C)C)=C1/C(=O)C(C(/C)=C2/Nc3ccc4ccccc4c3C2(C)C)=C1O [Synthesis Example 12] | B (A case where the solubility is 0.5 mass % or more and less than 1 mass %.) | C (A case where the solubility is 0.2 mass % or more and less than 0.5 mass %.) | B (A case where the solubility is 0.5 mass % or more and less than 1 mass %.) | C (A case where the solubility is 0.2 mass % or more and less than 0.5 mass %.)
9 | CC(C)(C)C1=C\C(=C/C=C/C=C/c2cc(C(C)(C)C)[o+]c3ccccc23)c2ccccc2O1 [Synthesis Example 13] | A (A case where the solubility is 1% by mass or more.) | A (A case where the solubility is 1% by mass or more.) | A (A case where the solubility is 1% by mass or more.) | B (A case where the solubility is 0.5 mass % or more and less than 1 mass %.)
10 | Cc1ccc2c(c1)/C(=C/C=C/C=C/c1cc(C(C)(C)C)[o+]c3ccc(C)cc13)C=C(C(C)(C)C)O2 [Synthesis Example 14] | A (A case where the solubility is 1% by mass or more.) | A (A case where the solubility is 1% by mass or more.) | A (A case where the solubility is 1% by mass or more.) | A (A case where the solubility is 1% by mass or more.)
11 | CC(C)(C)C1=C\C(=C/C=C(Cl)/C=C/c2cc(C(C)(C)C)[o+]c3ccccc23)c2ccccc2O1 [Synthesis Example 15] | A (A case where the solubility is 1% by mass or more.) | A (A case where the solubility is 1% by mass or more.) | A (A case where the solubility is 1% by mass or more.) | B (A case where the solubility is 0.5 mass % or more and less than 1 mass %.)
12 | COc1ccc2c(c1)/C(=C/C=C(Cl)/C=C/c1cc(C(C)(C)C)[o+]c3ccc(OC)cc13)C=C(C(C)(C)C)O2 [Synthesis Example 16] | A (A case where the solubility is 1% by mass or more.) | A (A case where the solubility is 1% by mass or more.) | A (A case where the solubility is 1% by mass or more.) | A (A case where the solubility is 1% by mass or more.)
13 | CC(C)(C)C1=C\C(=C/C=C/C=C/c2cc(-c3ccccc3)[o+]c(C(C)(C)C)c2)C=C(c2ccccc2)O1 [Synthesis Example 17] | B (A case where the solubility is 0.5 mass % or more and less than 1 mass %.) | B (A case where the solubility is 0.5 mass % or more and less than 1 mass %.) | A (A case where the solubility is 1% by mass or more.) | B (A case where the solubility is 0.5 mass % or more and less than 1 mass %.)
14 | CC(C)(C)C1=C\C(=C/C=C(Cl)/C=C/c2cc(-c3ccc(C(C)(C)C)cc3)[o+]c(C(C)(C)C)c2)C=C(c2ccc(C(C)(C)C)cc2)O1 [Synthesis Example 18] | A (A case where the solubility is 1% by mass or more.) | A (A case where the solubility is 1% by mass or more.) | A (A case where the solubility is 1% by mass or more.) | B (A case where the solubility is 0.5 mass % or more and less than 1 mass %.)
